Assay results taken from ChEMBL document CHEMBL1833893, “Synthesis and anticonvulsant activity of new 1-[2-oxo-2-(4-phenylpiperazin-1-yl)ethyl]pyrrolidine-2,5-diones” (Bioorg Med Chem Lett, 2011).
Activity calls are given as the source filed them. The calls are words filed in the database; no cut-off is given here.

Columns and labels:
Mus musculus [1] = assay: Anticonvulsant activity in albino CF1 mouse assessed as protection against maximal electroshock-induced seizures at 300 mg/kg, ip after 0.5 hrs; format: functional, organism-based; set-up: dose 300 mg/kg
Mus musculus [2] = assay: Anticonvulsant activity in ip dosed albino CF1 mouse assessed as protection against subcutaneous pentylenetetrazole-induced seizures after 0.5 hrs; format: functional; conditions: albino CF1, 0.5 h, read-out: MED
Mus musculus [3] = assay: Anticonvulsant activity in ip dosed albino CF1 mouse assessed as protection against subcutaneous pentylenetetrazole-induced seizures after 4 hrs; format: functional; conditions: albino CF1, 4 h, read-out: MED
Mus musculus [4] = assay: Anticonvulsant activity in albino CF1 mouse assessed as protection against maximal electroshock-induced seizures at 300 mg/kg, ip after 4 hrs; format: functional, organism-based; set-up: dose 300 mg/kg
Mus musculus [5] = assay: Neurotoxicity in albino CF1 mouse assessed as motor impairment at 300 mg/kg, ip after 0.5 hrs by rotarod test; format: toxicity, organism-based; set-up: dose 300 mg/kg, route intraperitoneal; conditions: in vivo
Mus musculus [6] = assay: Neurotoxicity in albino CF1 mouse assessed as motor impairment at 300 mg/kg, ip after 4 hrs by rotarod test; format: toxicity, organism-based; set-up: dose 300 mg/kg, route intraperitoneal; conditions: in vivo
Mus musculus [7] = assay: Anticonvulsant activity in albino CF1 mouse assessed as protection against electrically-induced seizure at 100 mg/kg, ip after 4 hrs by 6Hz psychomotor seizure test; format: functional
Mus musculus [8] = assay: Anticonvulsant activity in albino CF1 mouse assessed as protection against electrically-induced seizure at 100 mg/kg, ip after 1 hr by 6Hz psychomotor seizure test; format: functional; conditions: route intraperitoneal
Mus musculus [9] = assay: Anticonvulsant activity in albino CF1 mouse assessed as protection against subcutaneous pentylenetetrazole-induced seizures at 300 mg/kg, ip after 0.5 hrs; format: functional, organism-based; set-up: dose 300 mg/kg
Mus musculus [10] = assay: Anticonvulsant activity in albino CF1 mouse assessed as protection against subcutaneous pentylenetetrazole-induced seizures at 300 mg/kg, ip after 4 hrs; format: functional, organism-based; set-up: dose 300 mg/kg
Mus musculus [11] = assay: Anticonvulsant activity in ip dosed albino CF1 mouse assessed as protection against maximal electroshock-induced seizures after 0.5 hrs; format: functional; conditions: read-out: MED
Mus musculus [12] = assay: Anticonvulsant activity in ip dosed albino CF1 mouse assessed as protection against maximal electroshock-induced seizures after 4 hrs; format: functional; conditions: read-out: MED
Mus musculus [13] = assay: Anticonvulsant activity in albino CF1 mouse assessed as protection against electrically-induced seizure at 100 mg/kg, ip after 0.5 hrs by 6Hz psychomotor seizure test; format: functional; conditions: route intraperitoneal
Mus musculus [14] = assay: Neurotoxicity in ip dosed albino CF1 mouse assessed as minimum dose required to cause motor impairment after 0.5 hrs by rotarod test; format: toxicity, organism-based; conditions: in vivo
Rattus norvegicus [15] = assay: Anticonvulsant activity in Sprague-Dawley rat assessed as protection against maximal electroshock-induced seizures at 30 mg/kg, po after 0.25 hrs; format: functional
Mus musculus [16] = assay: Neurotoxicity in ip dosed albino CF1 mouse assessed as minimum dose required to cause motor impairment after 4 hrs by rotarod test; format: toxicity, organism-based; conditions: in vivo
Mus musculus [17] = assay: Anticonvulsant activity in albino CF1 mouse assessed as protection against electrically-induced seizure at 100 mg/kg, ip after 2 hrs by 6Hz psychomotor seizure test; format: functional; conditions: route intraperitoneal
Rattus norvegicus [18] = assay: Anticonvulsant activity in Sprague-Dawley rat assessed as protection against maximal electroshock-induced seizures at 30 mg/kg, po after 0.5 hrs; format: functional
Mus musculus [19] = assay: Anticonvulsant activity in albino CF1 mouse assessed as protection against electrically-induced seizure at 100 mg/kg, ip after 0.25 hrs by 6Hz psychomotor seizure test; format: functional; conditions: route intraperitoneal
Rattus norvegicus [20] = assay: Anticonvulsant activity in Sprague-Dawley rat assessed as protection against maximal electroshock-induced seizures at 30 mg/kg, po after 2 hrs; format: functional
Rattus norvegicus [21] = assay: Anticonvulsant activity in Sprague-Dawley rat assessed as protection against maximal electroshock-induced seizures at 30 mg/kg, po after 4 hrs; format: functional
Rattus norvegicus [22] = assay: Anticonvulsant activity in Sprague-Dawley rat assessed as protection against maximal electroshock-induced seizures at 30 mg/kg, po after 1 hr; format: functional

| Structure (SMILES) | minimal effective dose (Mus musculus [2]) [mg/kg] | Activity (Mus musculus [4]) | Activity (Mus musculus [5]) | Activity (Mus musculus [6]) | Activity (Mus musculus [8]) [%] | Activity (Mus musculus [9]) | Activity (Mus musculus [10]) | minimal effective dose (Mus musculus [11]) [mg/kg] | minimal effective dose (Mus musculus [12]) [mg/kg] | Activity (Mus musculus [13]) [%] | MTC (Mus musculus [14]) [mg/kg] | Activity (Rattus norvegicus [18]) | Activity (Mus musculus [19]) [%] | Activity (Rattus norvegicus [21]) | Activity (Rattus norvegicus [22]) | also measured |
| --- | --- | --- | --- | --- | --- | --- | --- | --- | --- | --- | --- | --- | --- | --- | --- | --- |
| CCC1(C)CC(=O)NC1=O (centres undefined) [ETHOSUXIMIDE] | 100 | inactive | Non-toxic | Non-toxic | – | – | – | – | – | – | – | – | – | – | – | Activity (Mus musculus [1]): inactive; minimal effective dose (Mus musculus [3]): 300 mg/kg |
| CC1CC(=O)N(CC(=O)N2CCN(c3ccc(F)cc3)CC2)C1=O (centres undefined) | – | – | Non-toxic | Non-toxic | 75 | inactive | inactive | 300 | 100 | 75 | – | – | – | – | – | Activity (Mus musculus [7]): inactive |
| CC1CC(=O)N(CC(=O)N2CCN(c3ccccc3)CC2)C1=O (centres undefined) | 300 | inactive | – | Non-toxic | – | – | – | 300 | – | – | 300 | – | – | – | – | minimal effective dose (Mus musculus [3]): 300 mg/kg |
| CCC1(CC)CC(=O)N(CC(=O)N2CCN(c3ccccc3Cl)CC2)C1=O | – | inactive | – | Non-toxic | – | inactive | inactive | 300 | – | – | 300 | – | – | – | – | – |
| CC1(C)CC(=O)N(CC(=O)N2CCN(c3ccccc3Cl)CC2)C1=O | – | inactive | Non-toxic | Non-toxic | – | inactive | inactive | 300 | – | – | – | – | – | – | – | – |
| CC1CC(=O)N(CC(=O)N2CCN(c3cccc(C(F)(F)F)c3)CC2)C1=O (centres undefined) | 300 | – | – | – | 100 | – | inactive | 100 | 100 | 100 | 300 | inactive | 100 | – | – | Activity (Mus musculus [7]): inactive; Activity (Rattus norvegicus [15]): inactive; MTC (Mus musculus [16]): 300 mg/kg; Activity (Mus musculus [17]): 75% |
| CC1(C)CC(=O)N(CC(=O)N2CCN(c3cccc(C(F)(F)F)c3)CC2)C1=O | – | – | Non-toxic | Non-toxic | 75 | inactive | inactive | 100 | 100 | 75 | – | inactive | – | inactive | inactive | Activity (Rattus norvegicus [20]): inactive |
| O=C(CN1C(=O)CCC1=O)N1CCN(c2cccc(C(F)(F)F)c2)CC1 | – | – | – | – | 75 | inactive | – | 100 | 100 | 100 | 100 | – | 100 | 75% | 75% | Activity (Mus musculus [7]; route intraperitoneal): 75%; Activity (Rattus norvegicus [20]): 75%; Activity (Rattus norvegicus [15]): inactive; MTC (Mus musculus [16]): 300 mg/kg; minimal effective dose (Mus musculus [3]): 300 mg/kg; Activity (Mus musculus [17]): 100% |
| CC1(C)CC(=O)N(CC(=O)N2CCN(c3ccc(Cl)cc3)CC2)C1=O | 300 | – | – | Non-toxic | 100 | – | inactive | 100 | 100 | 100 | 300 | inactive | 100 | 100% | inactive | Activity (Rattus norvegicus [15]): inactive |
| CC1CC(=O)N(CC(=O)N2CCN(c3ccc(Cl)cc3)CC2)C1=O (centres undefined) | – | – | Non-toxic | – | 75 | inactive | inactive | 300 | 100 | – | – | 75% | 75 | 75% | 75% | Activity (Rattus norvegicus [20]): 75%; MTC (Mus musculus [16]): 300 mg/kg |
| O=C(CN1C(=O)CCC1=O)N1CCN(c2ccccc2F)CC1 | 300 | – | – | Non-toxic | – | – | inactive | 300 | – | – | 300 | – | – | – | – | – |
| CCC1(CC)CC(=O)N(CC(=O)N2CCN(c3cccc(C(F)(F)F)c3)CC2)C1=O | – | – | Non-toxic | Non-toxic | – | inactive | inactive | 300 | 300 | – | – | – | – | – | – | – |
